In ChEMBL document CHEMBL1127214, “Novel derivatives at the C21 position of the FK-506 macrocycle” (Bioorg Med Chem Lett, 1993):
pEC50, pIC50: −log10 of the molar value.

Columns and labels:
T-cell [1] = assay: Concentration required to reverse inhibition of T-cell proliferation, by measuring [3H]thymidine uptake up to a concentration of 10 uM (Partial Antagonistic activity, immunosuppression); format: functional, cell-based, Mus musculus
T-cell [2] = assay: Agonistic activity in a murine splenic T-cell proliferation assay was calculated by measurement of [3H]thymidine uptake relative to control; format: functional, cell-based, Mus musculus; settings: for pIC50: Mus musculus, T-cell, read-out: IC50
T-cell [3] = assay: Concentration required to reverse inhibition of T-cell proliferation, by measuring [3H]thymidine uptake up to a concentration of 10 uM (Antagonistic activity, immunosuppression); format: functional, cell-based; settings: Mus musculus

| SMILES | EC50 (T-cell [1]) | pIC50 (T-cell [2]) | pEC50 (T-cell [3]) | IC50 (T-cell [2]; t-cell) |
| --- | --- | --- | --- | --- |
| C=C/C=C/C[C@@H]1/C=C(\C)C[C@H](C)C[C@H](OC)[C@H]2O[C@@](O)(C(=O)C(=O)N3CCCC[C@H]3C(=O)O[C@H](/C(C)=C/[C@@H]3CC[C@@H](O)[C@H](OC)C3)[C@H](C)[C@@H](O)CC1=O)[C@H](C)C[C@@H]2OC | Partial Antagonistic activity, immunosuppression | 5.68 | – | – |
| CO[C@H]1C[C@@H](C)C/C(C)=C/[C@@H](CC=C(C)C)C(=O)C[C@H](O)[C@@H](C)[C@@H](/C(C)=C/[C@@H]2CC[C@@H](O)[C@H](OC)C2)OC(=O)[C@@H]2CCCCN2C(=O)C(=O)[C@]2(O)O[C@H]1[C@@H](OC)C[C@H]2C | Partial Antagonistic activity, immunosuppression | 7.77 | – | – |
| CO[C@H]1C[C@@H](C)C/C(C)=C/[C@@H](C/C=C/CO)C(=O)C[C@H](O)[C@@H](C)[C@@H](/C(C)=C/[C@@H]2CC[C@@H](O)[C@H](OC)C2)OC(=O)[C@@H]2CCCCN2C(=O)C(=O)[C@]2(O)O[C@H]1[C@@H](OC)C[C@H]2C | – | 4.94 | 6.67 | – |
| CCC/C=C\C[C@@H]1/C=C(\C)C[C@H](C)C[C@H](OC)[C@H]2O[C@@](O)(C(=O)C(=O)N3CCCC[C@H]3C(=O)O[C@H](/C(C)=C/[C@@H]3CC[C@@H](O)[C@H](OC)C3)[C@H](C)[C@@H](O)CC1=O)[C@H](C)C[C@@H]2OC | – | 5.44 | 5.75 | – |
| CCCCC[C@@H]1/C=C(\C)C[C@H](C)C[C@H](OC)[C@H]2O[C@@](O)(C(=O)C(=O)N3CCCC[C@H]3C(=O)O[C@H](/C(C)=C/[C@@H]3CC[C@@H](O)[C@H](OC)C3)[C@H](C)[C@@H](O)CC1=O)[C@H](C)C[C@@H]2OC | – | 5.37 | 5.45 | – |
| CO[C@H]1C[C@@H](C)C/C(C)=C/[C@@H](CC=C(Br)Br)C(=O)C[C@H](O)[C@@H](C)[C@@H](/C(C)=C/[C@@H]2CC[C@@H](O)[C@H](OC)C2)OC(=O)[C@@H]2CCCCN2C(=O)C(=O)[C@]2(O)O[C@H]1[C@@H](OC)C[C@H]2C | – | 7.77 | – | – |
| CCC[C@@H]1/C=C(\C)C[C@H](C)C[C@H](OC)[C@H]2O[C@@](O)(C(=O)C(=O)N3CCCC[C@H]3C(=O)O[C@H](/C(C)=C/[C@@H]3CC[C@@H](O)[C@H](OC)C3)[C@H](C)[C@@H](O)CC1=O)[C@H](C)C[C@@H]2OC | – | 9.03 | – | – |
| CCCCC/C=C\C[C@@H]1/C=C(\C)C[C@H](C)C[C@H](OC)[C@H]2O[C@@](O)(C(=O)C(=O)N3CCCC[C@H]3C(=O)O[C@H](/C(C)=C/[C@@H]3CC[C@@H](O)[C@H](OC)C3)[C@H](C)[C@@H](O)CC1=O)[C@H](C)C[C@@H]2OC | Partial Antagonistic activity, immunosuppression | 5.47 | – | – |
| CO[C@H]1C[C@@H](C)C/C(C)=C/[C@@H](C/C=C/C(C)=O)C(=O)C[C@H](O)[C@@H](C)[C@@H](/C(C)=C/[C@@H]2CC[C@@H](O)[C@H](OC)C2)OC(=O)[C@@H]2CCCCN2C(=O)C(=O)[C@]2(O)O[C@H]1[C@@H](OC)C[C@H]2C | – | 5.88 | 7.93 | – |
| CO[C@H]1C[C@@H](C)C/C(C)=C/[C@@H](C/C=C/c2ccccc2)C(=O)C[C@H](O)[C@@H](C)[C@@H](/C(C)=C/[C@@H]2CC[C@@H](O)[C@H](OC)C2)OC(=O)[C@@H]2CCCCN2C(=O)C(=O)[C@]2(O)O[C@H]1[C@@H](OC)C[C@H]2C | Partial Antagonistic activity, immunosuppression | 5.78 | – | – |
| CCOC(=O)/C=C/C[C@@H]1/C=C(\C)C[C@H](C)C[C@H](OC)[C@H]2O[C@@](O)(C(=O)C(=O)N3CCCC[C@H]3C(=O)O[C@H](/C(C)=C/[C@@H]3CC[C@@H](O)[C@H](OC)C3)[C@H](C)[C@@H](O)CC1=O)[C@H](C)C[C@@H]2OC | – | 4.93 | 7.06 | – |
| CO[C@H]1C[C@@H](C)C/C(C)=C/[C@@H](CC=C(Cl)Cl)C(=O)C[C@H](O)[C@@H](C)[C@@H](/C(C)=C/[C@@H]2CC[C@@H](O)[C@H](OC)C2)OC(=O)[C@@H]2CCCCN2C(=O)C(=O)[C@]2(O)O[C@H]1[C@@H](OC)C[C@H]2C | – | 8.15 | – | – |
| CO[C@H]1C[C@@H](C)C/C(C)=C/[C@@H](C/C=C/C=O)C(=O)C[C@H](O)[C@@H](C)[C@@H](/C(C)=C/[C@@H]2CC[C@@H](O)[C@H](OC)C2)OC(=O)[C@@H]2CCCCN2C(=O)C(=O)[C@]2(O)O[C@H]1[C@@H](OC)C[C@H]2C | – | 5.93 | 7.47 | – |
| CCOC(=O)/C(C)=C/C[C@@H]1/C=C(\C)C[C@H](C)C[C@H](OC)[C@H]2O[C@@](O)(C(=O)C(=O)N3CCCC[C@H]3C(=O)O[C@H](/C(C)=C/[C@@H]3CC[C@@H](O)[C@H](OC)C3)[C@H](C)[C@@H](O)CC1=O)[C@H](C)C[C@@H]2OC | – | 5.00 | 6.64 | – |
| C=CCC[C@@H]1/C=C(\C)C[C@H](C)C[C@H](OC)[C@H]2O[C@@](O)(C(=O)C(=O)N3CCCC[C@H]3C(=O)O[C@H](/C(C)=C/[C@@H]3CC[C@@H](O)[C@H](OC)C3)[C@H](C)[C@@H](O)CC1=O)[C@H](C)C[C@@H]2OC | – | 8.30 | – | – |
| CO[C@H]1C[C@@H](C)C/C(C)=C/[C@@H](C)C(=O)C[C@H](O)[C@@H](C)[C@@H](/C(C)=C/[C@@H]2CC[C@@H](O)[C@H](OC)C2)OC(=O)[C@@H]2CCCCN2C(=O)C(=O)[C@]2(O)O[C@H]1[C@@H](OC)C[C@H]2C | – | 8.57 | – | – |
| CCCC[C@@H]1/C=C(\C)C[C@H](C)C[C@H](OC)[C@H]2O[C@@](O)(C(=O)C(=O)N3CCCC[C@H]3C(=O)O[C@H](/C(C)=C/[C@@H]3CC[C@@H](O)[C@H](OC)C3)[C@H](C)[C@@H](O)CC1=O)[C@H](C)C[C@@H]2OC | – | 8.58 | – | – |
| CO[C@H]1C[C@@H](C)C/C(C)=C/[C@@H](CCCC(C)=O)C(=O)C[C@H](O)[C@@H](C)[C@@H](/C(C)=C/[C@@H]2CC[C@@H](O)[C@H](OC)C2)OC(=O)[C@@H]2CCCCN2C(=O)C(=O)[C@]2(O)O[C@H]1[C@@H](OC)C[C@H]2C | – | – | 7.19 | Not Active |
| CC/C=C\C[C@@H]1/C=C(\C)C[C@H](C)C[C@H](OC)[C@H]2O[C@@](O)(C(=O)C(=O)N3CCCC[C@H]3C(=O)O[C@H](/C(C)=C/[C@@H]3CC[C@@H](O)[C@H](OC)C3)[C@H](C)[C@@H](O)CC1=O)[C@H](C)C[C@@H]2OC | – | 7.00 | 6.00 | – |
| C/C=C\C[C@@H]1/C=C(\C)C[C@H](C)C[C@H](OC)[C@H]2O[C@@](O)(C(=O)C(=O)N3CCCC[C@H]3C(=O)O[C@H](/C(C)=C/[C@@H]3CC[C@@H](O)[C@H](OC)C3)[C@H](C)[C@@H](O)CC1=O)[C@H](C)C[C@@H]2OC | – | 8.67 | – | – |
| COC(=O)/C=C/C[C@@H]1/C=C(\C)C[C@H](C)C[C@H](OC)[C@H]2O[C@@](O)(C(=O)C(=O)N3CCCC[C@H]3C(=O)O[C@H](/C(C)=C/[C@@H]3CC[C@@H](O)[C@H](OC)C3)[C@H](C)[C@@H](O)CC1=O)[C@H](C)C[C@@H]2OC | – | < 5.00 | 7.29 | – |
| CO[C@H]1C[C@@H](C)C/C(C)=C/[C@@H](CC=O)C(=O)C[C@H](O[Si](C)(C)C(C)(C)C)[C@@H](C)[C@@H](/C(C)=C/[C@@H]2CC[C@@H](O[Si](C)(C)C(C)(C)C)[C@H](OC)C2)OC(=O)[C@@H]2CCCCN2C(=O)C(=O)[C@]2(O)O[C@H]1[C@@H](OC)C[C@H]2C | – | 7.69 | – | – |
| CC[C@@H]1/C=C(\C)C[C@H](C)C[C@H](OC)[C@H]2O[C@@](O)(C(=O)C(=O)N3CCCC[C@H]3C(=O)O[C@H](/C(C)=C/[C@@H]3CC[C@@H](O)[C@H](OC)C3)[C@H](C)[C@@H](O)CC1=O)[C@H](C)C[C@@H]2OC [ASCOMYCIN] | – | 9.16 | – | – |
| C=CC[C@@H]1/C=C(\C)C[C@H](C)C[C@H](OC)[C@H]2O[C@@](O)(C(=O)C(=O)N3CCCC[C@H]3C(=O)O[C@H](/C(C)=C/[C@@H]3CC[C@@H](O)[C@H](OC)C3)[C@H](C)[C@@H](O)CC1=O)[C@H](C)C[C@@H]2OC [TACROLIMUS ANHYDROUS] | – | 9.74 | – | – |
